This is an account of results in US20220347294A1, “COMPOSITIONS AND METHODS FOR INCREASING THE EFFICACY OF IMMUNOTHERAPIES AND VACCINES” (The Regents of the University of Michigan, priority 2019, published 2022).

For experiment [1], the system named is CT26 cells. The experiment is described as follows: Prophylactic oral gavage plus α-PD-1 in the CT26 tumor model. Type of experiment: in vivo, BALB/c mice. The protocol:
FIG. 1A-F: In vivo screening of the candidate materials to prophylactically improve the anti-tumor efficacy of α-PD-1. (A) Mice were prophylactically gavaged various samples on day −7 for three times. Then 1.5×10^5 CT26 cells were inoculated in BALB/c mice subcutaneously (s.c.) on day 0. Mice were gavaged three times again in the first week post tumor inoculation and 5 times per week from day 7. α-PD-1 was i.p. injected on days 10, 14, 18 and 24 at 100 μg/dose. (B) Individual tumor growth curves and (C) average tumor growth curves for mice gavaged with various compounds. (D) Survival rate curves of various groups. (E) The average frequency of AH1-specific CD8^+ T cells in peripheral blood on day 22. (F) The representative scatter plots were measured via flow cytometry. Data represent mean±SEM. *p<0.05, **p<0.01, analyzed by two-way ANOVA (B), or t-test (E), log-rank (Mantel-Cox) test (D).
Among the FDA's list, five candidate materials were selected for the initial screening. Melatonin, found in pineal gland and gastrointestinal tracta, regulates sleep cycle and circadian rhythm. Epigallocatechin gallate (EGCG) is a natural antioxidant in plants. […]
Mice were cared for under the guidelines from federal, state and local. […] Tumor size was measured at preset time, and tumor volume was calculated as length×width^2. […]

For experiment [2], the system named is CT26 tumor. The experiment can be described thus: Tumor microenvironment analysis (tumor-infiltrating cells, flow cytometry). In kind it is in vivo, BALB/c mice. To be noted: combined with α-PD-1 IgG, day 24. The protocol:
After treatment with various samples, tumor tissues were excised at preset time points for analysis of tumor-infiltrating T cells. Tumor tissues were excised, cut into small pieces, and incubated with collagenase type IV (1 mg/ml) and of DNase I (0.1 mg/ml) with gentle shaking. After 30 min, cell suspension was filtered through a 70-μm strainer. Cells were washed with FACS buffer and blocked with anti-CD16/32 antibody. Cells were then stained with various antibodies (CD4 Monoclonal Antibody (GK1.5)-PE (eBioscience), APC-Anti-CD45 Rat Monoclonal Antibody (clone: 30-F11), FITC-Anti-CD45 Rat Monoclonal Antibody (clone: 30-F11), FITC-Rat Anti-Mouse CD8a Clone 53-6.7 (BD Biosciences), PE labeled H-2L-restricted SPSYVYHQF (SEQ ID NO.: 1), FITC-Anti-CD86 Rat Monoclonal Antibody (clone: GL-1, BioLegend), PE-CD11c Armenian Hamster anti Mouse (Clone: N418, eBioscience), PE-Cy7-Anti-mouse PD-1 (clone: 29F.1A12, BioLegend), FITC-CD44 Rat anti-Human/Mouse (clone: IM7, eBioscience), PE-Cy7-CD62L Monoclonal Antibody (MEL-14) (eBioscience), PE-Tcf1/Tcf7 (C63D9) Rabbit mAb (Cell Signaling Technology, #14456), PE-Cy7-Anti-mouse CD86 (Clone: GL1, BD Bioscience), FITC anti-mouse/human CD11b (M1/70, BioLegend), PE-anti-mouse F4/80 (BM8, BioLegend), or APC anti-mouse CD206 (MMR, BioLegend)). The cells were washed and stained with DAPI, or 7-AAD, or efluor 450 for flow cytometric analysis.
(In general: In flow cytometry, cells or beads pass a laser one at a time.)

As for inulin, in experiment [1] (prophylactic oral gavage from one week before tumor inoculation, combined with α-PD-1 i.p. 100 μg/dose), the “anti-tumor efficacy compared with α-PD-1 alone” value is “best efficacy”. Moreover, the “mice still surviving on day 50” value in experiment [1] (prophylactic oral gavage, inulin 120 mg/dosage, combined with α-PD-1) was found to be 60%. Moreover, the “intratumoral infiltration of T cells compared with α-PD-1 IgG alone” value in experiment [2] was “significantly enhanced”.
